{"source": "patent US6479435B1", "about": "“Diaryl ethers and processes for their preparation and herbicidal and desiccant compositions containing them” (ISK Americas Incorporated, priority 1997, dated 2002)", "format_in_all_cases": "in vivo", "key": {"[1]": {"tested_on": "Johnsongrass (Sorghum halepense, SORHA)", "assay": "Pre-emerge greenhouse herbicide test, phytotoxicity rating", "conditions": "14 days after application, rating scale 0-100", "method_in_brief": "(§1)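 Seeds sown in sandy loam one day before track-sprayer application of acetone solutions at 125–1000 g ai/ha (187 l/ha), then surface-watered to incorporate and bottom-watered. Injury scored visually at 14 days on a 0–100 scale (0 no damage, 100 complete death).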"}, "[2]": {"tested_on": "barnyardgrass (Echinochloa crusgalli, ECHCG)", "assay": "Pre-emerge greenhouse herbicide test, phytotoxicity rating", "conditions": "14 days after application, rating scale 0-100", "method_in_brief": "as §1"}, "[3]": {"tested_on": "common ragweed (Ambrosia artemisiifolia L., AMBEL)", "assay": "Pre-emerge greenhouse herbicide test, phytotoxicity rating", "conditions": "14 days after application, rating scale 0-100", "method_in_brief": "as §1"}, "[4]": {"tested_on": "green foxtail (Setaria viridis, SETVI)", "assay": "Pre-emerge greenhouse herbicide test, phytotoxicity rating", "conditions": "14 days after application, rating scale 0-100", "method_in_brief": "as §1"}, "[5]": {"tested_on": "ivyleaf morningglory (Ipomoea hederacea, IPOHE)", "assay": "Pre-emerge greenhouse herbicide test, phytotoxicity rating", "conditions": "14 days after application, rating scale 0-100", "method_in_brief": "as §1"}, "[6]": {"tested_on": "lambsquarters (Chenopodium album, CHEAL)", "assay": "Pre-emerge greenhouse herbicide test, phytotoxicity rating", "conditions": "14 days after application, rating scale 0-100", "method_in_brief": "as §1"}, "[7]": {"tested_on": "large crabgrass (Digitaria sanguinalis, DIGSA)", "assay": "Pre-emerge greenhouse herbicide test, phytotoxicity rating", "conditions": "14 days after application, rating scale 0-100", "method_in_brief": "as §1"}, "[8]": {"tested_on": "redroot pigweed (Amaranthus retroflexus, AMARE)", "assay": "Pre-emerge greenhouse herbicide test, phytotoxicity rating", "conditions": "14 days after application, rating scale 0-100", "method_in_brief": "as §1"}, "[9]": {"tested_on": "sicklepod (Cassia obtusifolia, CASOB)", "assay": "Pre-emerge greenhouse herbicide test, phytotoxicity rating", "conditions": "14 days after application, rating scale 0-100", "method_in_brief": "as §1"}, "[10]": {"tested_on": "velvetleaf (Abutilon theophrasti, ABUTH)", "assay": "Pre-emerge greenhouse herbicide test, phytotoxicity rating", "conditions": "14 days after application, rating scale 0-100", "method_in_brief": "as §1"}, "[11]": {"tested_on": "field corn (Zea mays L., var. Dekalb 535, CORN)", "assay": "Pre-emerge greenhouse test, crop damage rating", "conditions": "14 days after application, rating scale 0-100", "method_in_brief": "as §1"}, "[12]": {"tested_on": "upland rice (Oryza sp., var.Tebonnet, RICE)", "assay": "Pre-emerge greenhouse test, crop damage rating", "conditions": "14 days after application, rating scale 0-100", "method_in_brief": "as §1"}, "[13]": {"tested_on": "soybean (Glycine max L., var. Pella 86, SOY)", "assay": "Pre-emerge greenhouse test, crop damage rating", "conditions": "14 days after application, rating scale 0-100", "method_in_brief": "as §1"}, "[14]": {"tested_on": "common ragweed (Ambrosia artemisiifolia L., AMBEL)", "assay": "Post-emerge greenhouse herbicide test, phytotoxicity rating", "conditions": "14 days after application", "method_in_brief": "(§2)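 Plants at the 2-3 leaf stage, sown 8-21 days earlier, were track-sprayed post-emergence with compound in acetone plus 0.25% v/v non-ionic surfactant at 63-1000 g ai/ha (187 l/ha). Damage was rated at 14 days on a 0-100 scale (0 none, 100 all plants dead), for both crop injury and weed control.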"}, "[15]": {"tested_on": "Johnsongrass (Sorghum halepense, SORHA)", "assay": "Post-emerge greenhouse herbicide test, phytotoxicity rating", "conditions": "14 days after application", "method_in_brief": "as §2"}, "[16]": {"tested_on": "barnyardgrass (Echinochloa crusgalli, ECHCG)", "assay": "Post-emerge greenhouse herbicide test, phytotoxicity rating", "conditions": "14 days after application", "method_in_brief": "as §2"}, "[17]": {"tested_on": "green foxtail (Setaria viridis, SETVI)", "assay": "Post-emerge greenhouse herbicide test, phytotoxicity rating", "conditions": "14 days after application", "method_in_brief": "as §2"}, "[18]": {"tested_on": "ivyleaf morningglory (Ipomoea hederacea, IPOHE)", "assay": "Post-emerge greenhouse herbicide test, phytotoxicity rating", "conditions": "14 days after application", "method_in_brief": "as §2"}, "[19]": {"tested_on": "lambsquarters (Chenopodium album, CHEAL)", "assay": "Post-emerge greenhouse herbicide test, phytotoxicity rating", "conditions": "14 days after application", "method_in_brief": "as §2"}, "[20]": {"tested_on": "large crabgrass (Digitaria sanguinalis, DIGSA)", "assay": "Post-emerge greenhouse herbicide test, phytotoxicity rating", "conditions": "14 days after application", "method_in_brief": "as §2"}, "[21]": {"tested_on": "redroot pigweed (Amaranthus retroflexus, AMARE)", "assay": "Post-emerge greenhouse herbicide test, phytotoxicity rating", "conditions": "14 days after application", "method_in_brief": "as §2"}, "[22]": {"tested_on": "sicklepod (Cassia obtusifolia, CASOB)", "assay": "Post-emerge greenhouse herbicide test, phytotoxicity rating", "conditions": "14 days after application", "method_in_brief": "as §2"}, "[23]": {"tested_on": "velvetleaf (Abutilon theophrasti, ABUTH)", "assay": "Post-emerge greenhouse herbicide test, phytotoxicity rating", "conditions": "14 days after application", "method_in_brief": "as §2"}, "[24]": {"tested_on": "field corn (Zea mays L., var. Dekalb 535, CORN)", "assay": "Post-emerge greenhouse test, crop damage rating", "conditions": "14 days after application", "method_in_brief": "as §2"}, "[25]": {"tested_on": "upland rice (Oryza sp., var.Tebonnet, RICE)", "assay": "Post-emerge greenhouse test, crop damage rating", "conditions": "14 days after application", "method_in_brief": "as §2"}, "[26]": {"tested_on": "soybean (Glycine max L., var. Pella 86, SOY)", "assay": "Post-emerge greenhouse test, crop damage rating", "conditions": "14 days after application", "method_in_brief": "as §2"}}, "data": [{"smiles": "CCN1CC(=O)N(c2cc(Oc3ncccn3)c(Cl)cc2F)C1=O", "note": "[Compound 8-2]", "values": [{"measurement": "phytotoxicity rating SORHA", "setting": "[1]; 125 g ai/ha", "result": 20}, {"measurement": "phytotoxicity rating SORHA", "setting": "[1]; 500 g ai/ha", "result": 100}, {"measurement": "phytotoxicity rating ECHCG", "setting": "[2]; 125 g ai/ha", "result": 10}, {"measurement": "phytotoxicity rating ECHCG", "setting": "[2]; 500 g ai/ha", "result": 100}, {"measurement": "phytotoxicity rating AMBEL", "setting": "[3]; 125 g ai/ha", "result": 95}, {"measurement": "phytotoxicity rating AMBEL", "setting": "[3]; 500 g ai/ha", "result": 100}, {"measurement": "phytotoxicity rating SETVI", "setting": "[4]; 125 g ai/ha", "result": 95}, {"measurement": "phytotoxicity rating SETVI", "setting": "[4]; 500 g ai/ha", "result": 100}, {"measurement": "phytotoxicity rating IPOHE", "setting": "[5]; 125 g ai/ha", "result": 100}, {"measurement": "phytotoxicity rating IPOHE", "setting": "[5]; 500 g ai/ha", "result": 100}, {"measurement": "phytotoxicity rating CHEAL", "setting": "[6]; 125 g ai/ha", "result": 100}, {"measurement": "phytotoxicity rating CHEAL", "setting": "[6]; 500 g ai/ha", "result": 100}, {"measurement": "phytotoxicity rating DIGSA", "setting": "[7]; 125 g ai/ha", "result": 90}, {"measurement": "phytotoxicity rating DIGSA", "setting": "[7]; 500 g ai/ha", "result": 100}, {"measurement": "phytotoxicity rating AMARE", "setting": "[8]; 125 g ai/ha", "result": 100}, {"measurement": "phytotoxicity rating AMARE", "setting": "[8]; 500 g ai/ha", "result": 100}, {"measurement": "phytotoxicity rating CASOB", "setting": "[9]; 125 g ai/ha", "result": 0}, {"measurement": "phytotoxicity rating CASOB", "setting": "[9]; 500 g ai/ha", "result": 80}, {"measurement": "phytotoxicity rating ABUTH", "setting": "[10]; 125 g ai/ha", "result": 100}, {"measurement": "phytotoxicity rating ABUTH", "setting": "[10]; 500 g ai/ha", "result": 100}, {"measurement": "crop damage rating CORN", "setting": "[11]; 125 g ai/ha", "result": 0}, {"measurement": "crop damage rating CORN", "setting": "[11]; 500 g ai/ha", "result": 50}, {"measurement": "crop damage rating RICE", "setting": "[12]; 125 g ai/ha", "result": 40}, {"measurement": "crop damage rating RICE", "setting": "[12]; 500 g ai/ha", "result": 90}, {"measurement": "crop damage rating SOY", "setting": "[13]; 125 g ai/ha", "result": 0}, {"measurement": "crop damage rating SOY", "setting": "[13]; 500 g ai/ha", "result": 20}, {"measurement": "AMBEL phytotoxicity rating (0-100)", "setting": "[14]; 63 g al/ha", "result": 30}, {"measurement": "AMBEL phytotoxicity rating (0-100)", "setting": "[14]; 500 g al/ha", "result": 95}, {"measurement": "SORHA phytotoxicity rating (0-100)", "setting": "[15]; 63 g al/ha", "result": 0}, {"measurement": "SORHA phytotoxicity rating (0-100)", "setting": "[15]; 500 g al/ha", "result": 20}, {"measurement": "ECHCG phytotoxicity rating (0-100)", "setting": "[16]; 63 g al/ha", "result": 10}, {"measurement": "ECHCG phytotoxicity rating (0-100)", "setting": "[16]; 500 g al/ha", "result": 50}, {"measurement": "SETVI phytotoxicity rating (0-100)", "setting": "[17]; 63 g al/ha", "result": 10}, {"measurement": "SETVI phytotoxicity rating (0-100)", "setting": "[17]; 500 g al/ha", "result": 30}, {"measurement": "IPOHE phytotoxicity rating (0-100)", "setting": "[18]; 63 g al/ha", "result": 70}, {"measurement": "IPOHE phytotoxicity rating (0-100)", "setting": "[18]; 500 g al/ha", "result": 100}, {"measurement": "CHEAL phytotoxicity rating (0-100)", "setting": "[19]; 63 g al/ha", "result": 80}, {"measurement": "CHEAL phytotoxicity rating (0-100)", "setting": "[19]; 500 g al/ha", "result": 100}, {"measurement": "DIGSA phytotoxicity rating (0-100)", "setting": "[20]; 63 g al/ha", "result": 0}, {"measurement": "DIGSA phytotoxicity rating (0-100)", "setting": "[20]; 500 g al/ha", "result": 20}, {"measurement": "AMARE phytotoxicity rating (0-100)", "setting": "[21]; 63 g al/ha", "result": 60}, {"measurement": "AMARE phytotoxicity rating (0-100)", "setting": "[21]; 500 g al/ha", "result": 100}, {"measurement": "CASOB phytotoxicity rating (0-100)", "setting": "[22]; 63 g al/ha", "result": 20}, {"measurement": "CASOB phytotoxicity rating (0-100)", "setting": "[22]; 500 g al/ha", "result": 50}, {"measurement": "ABUTH phytotoxicity rating (0-100)", "setting": "[23]; 63 g al/ha", "result": 60}, {"measurement": "ABUTH phytotoxicity rating (0-100)", "setting": "[23]; 500 g al/ha", "result": 100}, {"measurement": "CORN crop damage rating (0-100)", "setting": "[24]; 63 g al/ha", "result": 5}, {"measurement": "CORN crop damage rating (0-100)", "setting": "[24]; 500 g al/ha", "result": 15}, {"measurement": "RICE crop damage rating (0-100)", "setting": "[25]; 63 g al/ha", "result": 0}, {"measurement": "RICE crop damage rating (0-100)", "setting": "[25]; 500 g al/ha", "result": 70}, {"measurement": "SOY crop damage rating (0-100)", "setting": "[26]; 63 g al/ha", "result": 10}, {"measurement": "SOY crop damage rating (0-100)", "setting": "[26]; 500 g al/ha", "result": 90}]}]}
